How the values were obtained:
[1] = target: phosphorylated FGFR3 (SEQ ID NO: 5, amino acids 449 to 759) (Homo sapiens (Human), UniProt P22607); assay: FGFR enzyme binding assay (HTRF tracer displacement), FGFR3; conditions: 5 nM phosphorylated FGFR3, average of multiple determinations if made
Summary of the method: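 Compounds were tested for displacement of a tracer from human FGFR kinase in a time-resolved FRET binding format. After 60 minutes at 22° C, signal was read at two wavelengths and converted to percent of control, normalised between untreated wells and 1 μM reference inhibitor.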

[2] = target: recombinant human FGFR1 catalytic domain (amino acids 308-731) (Homo sapiens (Human), UniProt P11362); assay: FGFR1 enzyme activity assay (LanthaScreen TR-FRET); format: biochemical; conditions: 20 min incubation at 22° C., average of multiple determinations if made, read-out: FGFR1 Enz FRET IC50
Summary of the method: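 His-tagged FGFR1 kinase domain with 100 nM Alexa Fluor 647-poly-GT peptide and ATP in pH 7.5 HEPES/MgCl2 buffer with 2% DMSO, 20 min at 22 °C. Quenched with EDTA plus 2 nM Eu-PY20 antibody and read after 60 min. IC50 comes from a 4-parameter fit of percent of control.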

[3] = target: recombinant human FGFR2 cytoplasmic domain (amino acids 403-822) (Homo sapiens (Human), UniProt P21802); assay: FGFR2 enzyme activity assay (LanthaScreen TR-FRET); format: biochemical; conditions: 15 μM ATP, 20 min incubation at 22° C., average of multiple determinations if made, read-out: FGFR2 Enz FRET IC50
Summary of the method: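 His-tagged FGFR2 cytoplasmic domain ([…]) with 100 nM Alexa Fluor 647-poly-GT peptide and 15 μM ATP in HEPES/MgCl2/Triton buffer, pH 7.5, 2% DMSO, 20 min at 22 °C. EDTA-quenched, Eu-PY20 antibody added, TR-FRET read after 60 min.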

Sequence of phosphorylated FGFR3 (SEQ ID NO: 5, amino acids 449 to 759) (P22607 449-759): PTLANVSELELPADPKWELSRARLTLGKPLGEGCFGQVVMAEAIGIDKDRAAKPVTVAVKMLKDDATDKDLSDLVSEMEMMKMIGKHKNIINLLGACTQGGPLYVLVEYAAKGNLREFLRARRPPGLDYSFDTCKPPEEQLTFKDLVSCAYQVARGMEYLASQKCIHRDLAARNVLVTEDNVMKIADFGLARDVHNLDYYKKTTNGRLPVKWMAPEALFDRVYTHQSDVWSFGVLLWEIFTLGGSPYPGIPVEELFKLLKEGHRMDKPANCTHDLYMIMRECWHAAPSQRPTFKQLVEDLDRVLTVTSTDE
Sequence of recombinant human FGFR2 cytoplasmic domain (amino acids 403-822) (P21802 402-821): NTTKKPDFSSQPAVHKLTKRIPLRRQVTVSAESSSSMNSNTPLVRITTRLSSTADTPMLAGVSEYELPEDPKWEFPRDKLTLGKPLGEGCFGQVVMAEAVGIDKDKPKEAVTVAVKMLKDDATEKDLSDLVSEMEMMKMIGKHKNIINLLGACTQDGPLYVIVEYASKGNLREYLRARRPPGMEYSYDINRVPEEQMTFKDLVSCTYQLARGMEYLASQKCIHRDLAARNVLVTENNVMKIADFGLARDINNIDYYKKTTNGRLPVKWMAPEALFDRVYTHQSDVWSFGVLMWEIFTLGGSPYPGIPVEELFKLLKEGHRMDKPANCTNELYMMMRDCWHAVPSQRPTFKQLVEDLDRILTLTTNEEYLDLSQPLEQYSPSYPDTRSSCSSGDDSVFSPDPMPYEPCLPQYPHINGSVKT
Sequence of recombinant human FGFR1 catalytic domain (amino acids 308-731) (P11362 other isoform, or with tags, fused parts or gaps): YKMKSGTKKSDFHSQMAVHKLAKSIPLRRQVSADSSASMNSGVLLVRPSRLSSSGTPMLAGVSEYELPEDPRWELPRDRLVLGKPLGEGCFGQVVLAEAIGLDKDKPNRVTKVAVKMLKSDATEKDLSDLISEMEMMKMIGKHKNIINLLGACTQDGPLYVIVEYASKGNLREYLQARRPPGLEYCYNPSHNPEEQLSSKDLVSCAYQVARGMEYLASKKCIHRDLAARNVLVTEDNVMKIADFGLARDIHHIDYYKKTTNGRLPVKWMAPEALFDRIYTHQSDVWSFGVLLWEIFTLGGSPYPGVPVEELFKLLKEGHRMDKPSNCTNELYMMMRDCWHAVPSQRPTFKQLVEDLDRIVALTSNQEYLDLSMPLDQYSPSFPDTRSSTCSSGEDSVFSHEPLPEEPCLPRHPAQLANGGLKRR

| Compound | IC50 [1] | IC50 [2] | IC50 [3] |
| --- | --- | --- | --- |
| C=CC(=O)N1CC2(CCN(C(=O)N3CCC(n4cc(-c5cc(OC)c6c(C#N)cnn6c5)cn4)CC3)CC2)C1 [Example 6, 6-(1-(1-(2-acryloyl-2,7-diazaspiro[3.5]nonane-7-carbonyl)piperidin-4-yl)-1H-pyrazol-4-yl)-4-methoxypyrazolo[1,5-a]pyridine-3-carbonitrile] | 18 nM | 10 nM | 4 nM |
| C=CC(=O)N1C[C@H]2CN(C(=O)N3CCC(n4cc(-c5cc(OC)c6c(C#N)cnn6c5)cn4)CC3)C[C@H]21 [Example 7, 6-(1-(1-((1S,5S)-6-acryloyl-3,6-diazabicyclo[3.2.0]heptane-3-carbonyl)piperidin-4-yl)-1H-pyrazol-4-yl)-4-methoxypyrazolo[1,5-a]pyridine-3-carbonitrile] | 9 nM | 18 nM | 6 nM |
| C=CC(=O)N1CC2(CCN(C(=O)N3CCC(n4cc(-c5cc(OC)c6c(C#N)cnn6c5)cn4)CC3)C2)C1 [Example 8, 6-(1-(1-(2-acryloyl-2,6-diazaspiro[3.4]octane-6-carbonyl)piperidin-4-yl)-1H-pyrazol-4-yl)-4-methoxypyrazolo[1,5-a]pyridine-3-carbonitrile] | 8 nM | 18 nM | 7 nM |
| C=CC(=O)Nc1ccc(CN2CCC(n3cc(-c4cc(OC)c5c(C#N)cnn5c4)cn3)CC2)cc1 [Example 9, N-(4-((4-(4-(3-cyano-4-methoxypyrazolo[1,5-a]pyridin-6-yl)-1H-pyrazol-1-yl)piperidin-1-yl)methyl)phenyl)acrylamide] | 5 nM | 32 nM | 5 nM |
| C=CC(=O)N(C)c1ccc(CN2CCC(n3cc(-c4cc(OC)c5c(C#N)cnn5c4)cn3)CC2)cc1 [Example 10, N-(4-((4-(4-(3-cyano-4-methoxypyrazolo[1,5-a]pyridin-6-yl)-1H-pyrazol-1-yl)piperidin-1-yl)methyl)phenyl)-N-methylacrylamide] | 4 nM | 34 nM | 6 nM |
| C=CC(=O)N1CCC(n2cc(-c3cc(OC)c4c(C#N)cnn4c3)cn2)CC1 [Example 11, 6-(1-(1-acryloylpiperidin-4-yl)-1H-pyrazol-4-yl)-4-methoxypyrazolo[1,5-a]pyridine-3-carbonitrile] | 25 nM | 22 nM | 7 nM |
| C=CC(=O)N1CCC(F)(C(=O)N2CCC(n3cc(-c4cc(OC)c5c(C#N)cnn5c4)cn3)CC2)CC1 [Example 13, 6-(1-(1-(1-acryloyl-4-fluoropiperidine-4-carbonyl)piperidin-4-yl)-1H-pyrazol-4-yl)-4-methoxypyrazolo[1,5-a]pyridine-3-carbonitrile] | 39 nM | 10 nM | 2 nM |
| C=CC(=O)N1CC(C(=O)N2CCC(n3cnc(-c4cc(OC)c5c(C#N)cnn5c4)c3)CC2)C1 [Example 98, 6-(1-(1-(1-acryloylazetidine-3-carbonyl)piperidin-4-yl)-1H-imidazol-4-yl)-4-methoxypyrazolo[1,5-a]pyridine-3-carbonitrile] | 19 nM | 22 nM | 6 nM |
| C=CC(=O)N1CC(C(=O)N2CCC(c3ccc(-c4cc(OC)c5c(C#N)cnn5c4)cc3)CC2)C1 [Example 101, 6-(4-(1-(1-acryloylazetidine-3-carbonyl)piperidin-4-yl)phenyl)-4-methoxypyrazolo[1,5-a]pyridine-3-carbonitrile] | 3 nM | 13 nM | 3 nM |
| C=CC(=O)N1CC(C)(C(=O)N2CCC(n3cc(-c4cc(OC)c5c(Cl)cnn5c4)cn3)CC2)C1 [Example 123, 1-(3-(4-(4-(3-chloro-4-methoxypyrazolo[1,5-a]pyridin-6-yl)-1H-pyrazol-1-yl)piperidine-1-carbonyl)-3-methylazetidin-1-yl)prop-2-en-1-one] | 22 nM | 40 nM | 13 nM |
| C=CC(=O)N1CC(OC)(C(=O)N2CCC(n3cc(-c4cc(OC)c5c(Cl)cnn5c4)cn3)CC2)C1 [Example 124, 1-(3-(4-(4-(3-chloro-4-methoxypyrazolo[1,5-a]pyridin-6-yl)-1H-pyrazol-1-yl)piperidine-1-carbonyl)-3-methoxyazetidin-1-yl)prop-2-en-1-one] | 9 nM | 38 nM | 17 nM |
| C=CC(=O)N1CC(C(=O)N2CCC(n3cc(-c4cc(OC5CCC5)c5c(C#N)cnn5c4)cn3)CC2)C1 [Example 125, 6-(1-(1-(1-acryloylazetidine-3-carbonyl)piperidin-4-yl)-1H-pyrazol-4-yl)-4-cyclobutoxypyrazolo[1,5-a]pyridine-3-carbonitrile] | 2 nM | 4 nM | 3 nM |
| C=CC(=O)N1CC(C(=O)N2CCC(n3cc(-c4cc(OCC)c5c(C#N)cnn5c4)cn3)CC2)C1 [Example 126, 6-(1-(1-(1-acryloylazetidine-3-carbonyl)piperidin-4-yl)-1H-pyrazol-4-yl)-4-ethoxypyrazolo[1,5-a]pyridine-3-carbonitrile] | 11 nM | 13 nM | 6 nM |
| C=CC(=O)N1CC(C(=O)N2CCC(n3cc(-c4cc(OC(C)C)c5c(C#N)cnn5c4)cn3)CC2)C1 [Example 127, 6-(1-(1-(1-acryloylazetidine-3-carbonyl)piperidin-4-yl)-1H-pyrazol-4-yl)-4-isopropoxypyrazolo[1,5-a]pyridine-3-carbonitrile] | 10 nM | 7 nM | 5 nM |
| C=CC(=O)N1CC(C(=O)N2CCC(n3cc(-c4cc(OCC(C)C)c5c(C#N)cnn5c4)cn3)CC2)C1 [Example 128, 6-(1-(1-(1-acryloylazetidine-3-carbonyl)piperidin-4-yl)-1H-pyrazol-4-yl)-4-isobutoxypyrazolo[1,5-a]pyridine-3-carbonitrile] | 6 nM | 7 nM | 5 nM |
| C=CC(=O)N1CC(C(=O)N2CCC(n3cc(-c4cc(C(C)C)c5c(C#N)cnn5c4)cn3)CC2)C1 [Example 129, 6-(1-(1-(1-acryloylazetidine-3-carbonyl)piperidin-4-yl)-1H-pyrazol-4-yl)-4-isopropylpyrazolo[1,5-a]pyridine-3-carbonitrile] | 34 nM | 14 nM | 9 nM |
| C=CC(=O)N1CC(C(=O)N2CCC(n3cc(-c4cc(-c5ccc(NC(=O)C6CC6)cc5F)c5c(C#N)cnn5c4)cn3)CC2)C1 [Example 130, N-(4-(6-(1-(1-(1-acryloylazetidine-3-carbonyl)piperidin-4-yl)-1H-pyrazol-4-yl)-3-cyanopyrazolo[1,5-a]pyridin-4-yl)-3-fluorophenyl)cyclopropane-carboxamide] | 3 nM | 3 nM | 3 nM |
| C=CC(=O)N1CC(C(=O)N2CCC(n3cc(-c4cc(-c5ccccc5F)c5c(C#N)cnn5c4)cn3)CC2)C1 [Example 131, 6-(1-(1-(1-acryloylazetidine-3-carbonyl)piperidin-4-yl)-1H-pyrazol-4-yl)-4-(2-fluorophenyl)pyrazolo[1,5-a]pyridine-3-carbonitrile] | 1 nM | 9 nM | 10 nM |
| C=CC(=O)N1CC(CN2CCC(n3cc(-c4cc(OC)c5c(C#N)cnn5c4)cn3)CC2)C1 [Example 132, 6-(1-(1-((1-acryloylazetidin-3-yl)methyl)piperidin-4-yl)-1H-pyrazol-4-yl)-4-methoxypyrazolo[1,5-a]pyridine-3-carbonitrile] | 7 nM | 14 nM | 13 nM |
| COc1cc(-c2cnn(C3CCN(C(=O)C4CN(C(=O)/C=C/CN(C)C)C4)CC3)c2)cn2ncc(C#N)c12 [Example 143, (E)-6-(1-(1-(1-(4-(dimethylamino)but-2-enoyl)azetidine-3-carbonyl)piperidin-4-yl)-1H-pyrazol-4-yl)-4-methoxypyrazolo [1,5-a]pyridine-3-carbonitrile] | 2 nM | 10 nM | 2 nM |
| COc1cc(-c2cnn(C3CCN(C(=O)C4CN(C(=O)/C=C/CN5CCCCC5)C4)CC3)c2)cn2ncc(C#N)c12 [Example 145, (E)-4-methoxy-6-(1-(1-(1-(4-(piperidin-1-yl)but-2-enoyl)azetidine-3-carbonyl)piperidin-4-yl)-1H-pyrazol-4-yl)pyrazolo[1,5-a]pyridine-3-carbonitrile] | 4 nM | 4 nM | 3 nM |
| COc1cc(-c2cnn(C3CCN(C(=O)C4CN(C(=O)/C=C/CN(C)C)C4)CC3)c2)cn2ncc(Cl)c12 [Example 174] | 12 nM | 16 nM | 6 nM |
| COc1cc(-c2cnn(C3CCN(CC4CN(C(=O)/C=C/CN5CCCCC5)C4)CC3)c2)cn2ncc(C#N)c12 [Example 175, (E)-4-methoxy-6-(1-(1-((1-(4-(piperidin-1-yl)but-2-enoyl)azetidin-3-yl)methyl)piperidin-4-yl)-1H-pyrazol-4-yl)pyrazolo[1,5-a]pyridine-3-carbonitrile] | 8 nM | 4 nM | 10 nM |

Source: US12180207B2 (ARRAY BIOPHARMA INC., priority 2018, dated 2024)
